These results are taken from patent publication US20240327311A1, “Benzothiazole Derivative as a Urease Inhibitor for Fertilizer Application” (Sabic Agri-Nutrients Company, priority 2021, published 2024).

One data set addresses urease (Canavalia ensiformis, UniProt P07374). The following applies: cited from earlier work.
The conditions of data set [1]: similar conditions; U.S. Pat. No. 10,640,430; cited from earlier work.
The conditions of data set [2]: similar storage conditions; Soil Use and Management, 2008, 24, 246; cited from earlier work.
The nature of data set [3]: Thermogravimetric analysis and isothermal study under air. It counts as physicochemical. The conditions noted are these: air atmosphere.

urease, sequence (P07374 whole entry, looked up): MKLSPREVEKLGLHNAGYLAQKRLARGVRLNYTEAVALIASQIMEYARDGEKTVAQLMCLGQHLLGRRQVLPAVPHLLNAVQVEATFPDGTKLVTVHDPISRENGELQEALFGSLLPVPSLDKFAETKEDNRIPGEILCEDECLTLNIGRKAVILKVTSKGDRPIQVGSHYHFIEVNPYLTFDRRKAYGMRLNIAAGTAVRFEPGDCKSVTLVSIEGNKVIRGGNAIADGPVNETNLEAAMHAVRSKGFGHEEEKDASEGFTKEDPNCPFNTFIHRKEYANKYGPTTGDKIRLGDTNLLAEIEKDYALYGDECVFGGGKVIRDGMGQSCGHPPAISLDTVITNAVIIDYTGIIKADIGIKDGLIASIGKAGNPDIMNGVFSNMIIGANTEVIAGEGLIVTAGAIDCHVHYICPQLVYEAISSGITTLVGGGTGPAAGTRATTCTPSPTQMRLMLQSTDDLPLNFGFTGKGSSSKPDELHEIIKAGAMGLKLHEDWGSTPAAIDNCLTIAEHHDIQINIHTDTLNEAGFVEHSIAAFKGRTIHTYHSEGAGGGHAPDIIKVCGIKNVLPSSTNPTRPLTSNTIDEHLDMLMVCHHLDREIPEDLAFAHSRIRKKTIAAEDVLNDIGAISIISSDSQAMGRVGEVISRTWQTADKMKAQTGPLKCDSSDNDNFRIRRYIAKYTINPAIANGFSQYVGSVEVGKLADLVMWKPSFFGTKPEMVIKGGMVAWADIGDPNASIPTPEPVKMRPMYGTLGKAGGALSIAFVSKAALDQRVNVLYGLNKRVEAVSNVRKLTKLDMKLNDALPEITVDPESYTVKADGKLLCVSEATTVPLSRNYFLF

What is called IC50 is the point on the concentration scale where inhibition reaches its midpoint. For the compound `NP(N)(=O)Nc1ccccc1[N+](=O)[O-]`, the IC50 at urease is 0.003 µM.
Take `CCCCNP(N)(N)=S` [NBTPT, N-(n-butyl) thiophosphoric triamide]: the “degradation under urea melt conditions” value in data set [1] is “significant degradation”. In data set [2], the storage stability entry was “unstable”.
For the compound `Oc1cccc(-c2nc3ccccc3s2)c1` [BZT, 2-(3-Hydroxyphenyl) benzothiazole], the “amount of BZT lost (isothermal study)” value in data set [3] (140° C., 40 minutes) is given as “about 0.26%”. The “onset of degradation (TGA)” value in data set [3] was 255.1 °C.
With `CCCCNP(N)(N)=S` [drawing 22], the IC50 at urease was 0.1 µM.
